Several values for one entry are separate records, joined by “and”; a condition that tells them apart may be missing. Equal entries are not always repeated. Inconclusive results and toxic doses are left out.

For the experiment, the system named is L1210 leukemia ip in BDF1 mice, survival T/C. Briefly: NCI In Vivo Anticancer Drug Screen. Data for tumor model L1210 Leukemia (intraperitoneal) in B6D2F1 (BDF1) mice. Particulars: endpoint: mean survival time, higher = longer survival. In outline:
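In this screen, tumor-bearing mice given compound are compared to those given vehicle, and their survival values are reported as a treated-to-control quotient.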

Setting [1] is: dose: 100.0 mg/kg/injection, schedule: Q01DX001 (ip), vehicle: Klucel (hydroxypropylcellulose) (HPC).
Setting [2] is: dose: 100.0 mg/kg/injection, schedule: Q01DX009 (ip), vehicle: saline.
Setting [3] is: dose: 100.0 mg/kg/injection, schedule: Q04DX002 (ip), vehicle: Klucel (hydroxypropylcellulose) (HPC).
[4] abbreviates: dose: 100.0 mg/kg/injection, schedule: Q04DX003 (ip), vehicle: Klucel (hydroxypropylcellulose) (HPC).
The mark [5] stands for this setting: dose: 100.0 mg/kg/injection, schedule: Q04DX003 (ip), vehicle: saline.
Setting [6] is: dose: 200.0 mg/kg/injection, schedule: Q01DX001 (ip), vehicle: Klucel (hydroxypropylcellulose) (HPC).
[7] abbreviates: dose: 200.0 mg/kg/injection, schedule: Q01DX009 (ip), vehicle: saline.
[8] abbreviates: dose: 200.0 mg/kg/injection, schedule: Q04DX002 (ip), vehicle: Klucel (hydroxypropylcellulose) (HPC).
Setting [9] is: dose: 200.0 mg/kg/injection, schedule: Q04DX003 (ip), vehicle: saline.
Where [10] appears, read: dose: 400.0 mg/kg/injection, schedule: Q01DX001 (ip), vehicle: Klucel (hydroxypropylcellulose) (HPC).
Where [11] appears, read: dose: 400.0 mg/kg/injection, schedule: Q04DX002 (ip), vehicle: Klucel (hydroxypropylcellulose) (HPC).
Setting [12] is: dose: 400.0 mg/kg/injection, schedule: Q04DX003 (ip), vehicle: saline.
[13] abbreviates: dose: 200.0 mg/kg/injection, schedule: Q04DX003 (ip), vehicle: saline with Tween-80.
The mark [14] stands for this setting: dose: 400.0 mg/kg/injection, schedule: Q04DX003 (ip), vehicle: saline with Tween-80.
Where [15] appears, read: dose: 50.0 mg/kg/injection, schedule: Q01DX009 (ip), vehicle: saline.
[16] abbreviates: dose: 50.0 mg/kg/injection, schedule: Q01DX009 (ip), vehicle: saline with Tween-80.
[17] abbreviates: dose: 100.0 mg/kg/injection, schedule: Q01DX009 (ip), vehicle: saline with Tween-80.
The mark [18] stands for this setting: dose: 25.0 mg/kg/injection, schedule: Q01DX009 (ip), vehicle: saline.
Where [19] appears, read: dose: 100.0 mg/kg/injection, schedule: Q04DX003 (ip), vehicle: saline with Tween-80.
Setting [20] is: dose: 100.0 mg/kg/injection, schedule: Q01DX005 (ip), vehicle: saline.
[21] abbreviates: dose: 200.0 mg/kg/injection, schedule: Q01DX005 (ip), vehicle: saline.

As to `CC(C)C(=O)Nc1ccc([N+](=O)[O-])c(C(F)(F)F)c1`, the T/C reads like this: under setting [1], 102 % of control; (dose: 100.0 mg/kg/injection, schedule: Q01DX009 (ip), vehicle: Klucel (hydroxypropylcellulose) (HPC)) 93 % of control and 109 % of control; under setting [2], 105 % of control; under setting [3], 97 % of control and 92 % of control; under setting [4], 100 % of control; under setting [5], 108 % of control. The T/C was 102 % of control under setting [6]; 100 % of control and 103 % of control (dose: 200.0 mg/kg/injection, schedule: Q01DX009 (ip), vehicle: Klucel (hydroxypropylcellulose) (HPC)); 92 % of control under setting [7]; 100 % of control and 102 % of control under setting [8]; 109 % of control (dose: 200.0 mg/kg/injection, schedule: Q04DX003 (ip), vehicle: Klucel (hydroxypropylcellulose) (HPC)); 101 % of control under setting [9]. Also, the T/C runs as follows: under setting [10], 110 % of control; under setting [11], 100 % of control and 113 % of control; (dose: 400.0 mg/kg/injection, schedule: Q04DX003 (ip), vehicle: Klucel (hydroxypropylcellulose) (HPC)) 92 % of control; under setting [12], 88 % of control.
As to `CC(=O)Oc1c2ccccc2c2c3c(cccc13)C(=O)O2`, the T/C under setting [1] is 95 % of control, the T/C under setting [6] was 95 % of control and the T/C under setting [10] was 95 % of control.
Regarding `Cc1cc(C)c(CCc2c(C)cc(C)cc2C)c(C)c1`, the T/C under setting [13] was 104 % of control and the T/C under setting [14] is 102 % of control.
With `CC(CN1CCOCC1)O[Si](C)(C)C` (configuration not stated), the T/C runs as follows: under setting [15], 92 % of control; under setting [2], 96 % of control; under setting [7], 96 % of control.
Turning to `CCN(C(=O)Nc1ccccc1F)c1cc(OC)ccc1C`, the T/C was 91 % of control under setting [16] and 86 % of control under setting [17].
With `CCn1c(=O)oc2ccccc2c1=S`, the T/C runs as follows: under setting [5], 100 % of control; under setting [9], 96 % of control.
On to `NNC(=O)CCCCCO`, for which the T/C under setting [17] is 102 % of control; the T/C (dose: 200.0 mg/kg/injection, schedule: Q01DX009 (ip), vehicle: saline with Tween-80) is 100 % of control; the T/C (dose: 400.0 mg/kg/injection, schedule: Q01DX009 (ip), vehicle: saline with Tween-80) is 100 % of control.
With `CCCC[As](=O)(O)CC`, the T/C under setting [18] is 104 % of control.
For `Cc1c(N)ccc2ccccc12`, the T/C was 94 % of control (dose: 25.0 mg/kg/injection, schedule: Q04DX003 (ip), vehicle: Klucel (hydroxypropylcellulose) (HPC)); 91 % of control (dose: 50.0 mg/kg/injection, schedule: Q04DX003 (ip), vehicle: Klucel (hydroxypropylcellulose) (HPC)); 103 % of control (dose: 100.0 mg/kg/injection, schedule: Q01DX001 (ip), vehicle: other); 91 % of control under setting [4]; 99 % of control (dose: 200.0 mg/kg/injection, schedule: Q01DX001 (ip), vehicle: other); 97 % of control (dose: 400.0 mg/kg/injection, schedule: Q01DX001 (ip), vehicle: other).
Turning to `COc1ccc(C)cc1NN`, the T/C is 101 % of control under setting [18], 97 % of control under setting [15] and 96 % of control under setting [5].
Turning to `O=C(NC(=O)c1ccccc1)C(=O)c1ccccc1`, the T/C runs as follows: (dose: 100.0 mg/kg/injection, schedule: Q01DX001 (ip), vehicle: saline with Tween-80) 94 % of control; (dose: 200.0 mg/kg/injection, schedule: Q01DX001 (ip), vehicle: saline with Tween-80) 105 % of control; (dose: 400.0 mg/kg/injection, schedule: Q01DX001 (ip), vehicle: saline with Tween-80) 87 % of control.
As for `C=C(Br)CNCCCCCC`, the T/C runs as follows: (dose: 12.5 mg/kg/injection, schedule: Q01DX009 (ip), vehicle: Klucel (hydroxypropylcellulose) (HPC)) 94 % of control; (dose: 25.0 mg/kg/injection, schedule: Q01DX009 (ip), vehicle: Klucel (hydroxypropylcellulose) (HPC)) 111 % of control.
Take `Cc1c(C)c(C)c(CN2CCCC2)c(C)c1C`: the T/C is, setting by setting: (dose: 12.5 mg/kg/injection, schedule: Q01DX005 (ip), vehicle: Klucel (hydroxypropylcellulose) (HPC)) 107 % of control; (dose: 12.5 mg/kg/injection, schedule: Q04DX002 (ip), vehicle: Klucel (hydroxypropylcellulose) (HPC)) 109 % of control; (dose: 25.0 mg/kg/injection, schedule: Q01DX005 (ip), vehicle: Klucel (hydroxypropylcellulose) (HPC)) 97 % of control; (dose: 25.0 mg/kg/injection, schedule: Q04DX002 (ip), vehicle: Klucel (hydroxypropylcellulose) (HPC)) 86 % of control; (dose: 35.0 mg/kg/injection, schedule: Q01DX009 (ip), vehicle: Klucel (hydroxypropylcellulose) (HPC)) 90 % of control; (dose: 50.0 mg/kg/injection, schedule: Q04DX002 (ip), vehicle: Klucel (hydroxypropylcellulose) (HPC)) 112 % of control. In addition, the T/C under setting [3] was 94 % of control.
Turning to `Cc1cc(C)c(S(=O)(=O)NN)c(C)c1`, the T/C under setting [19] is 94 % of control and the T/C under setting [13] was 90 % of control.
For `CC(=O)NS(=O)(=O)c1ccc(C)cc1`, the T/C (dose: 100.0 mg/kg/injection, schedule: Q04DX003 (ip), vehicle: acetone) was 115 % of control; the T/C (dose: 200.0 mg/kg/injection, schedule: Q04DX003 (ip), vehicle: acetone) was 108 % of control; the T/C (dose: 400.0 mg/kg/injection, schedule: Q04DX003 (ip), vehicle: acetone) is 97 % of control.
`Cc1cc(S(N)(=O)=O)ccc1Cl`: the T/C is 93 % of control under setting [19], 93 % of control under setting [13] and 104 % of control under setting [14].
With `O=C(O)/C=C\C(=O)NCCCNC(=O)/C=C\C(=O)O`, the T/C was 101 % of control (dose: 100.0 mg/kg/injection, schedule: Q01DX001 (ip), vehicle: carboxymethylcellulose (CMC)); 96 % of control (dose: 200.0 mg/kg/injection, schedule: Q01DX001 (ip), vehicle: carboxymethylcellulose (CMC)); 93 % of control (dose: 400.0 mg/kg/injection, schedule: Q01DX001 (ip), vehicle: carboxymethylcellulose (CMC)).
On to `Cc1cc(OCCO)ccc1Cl`, for which the T/C reads like this: under setting [3], 108 % of control; under setting [8], 108 % of control; under setting [11], 108 % of control.
Regarding `NCCCCNc1ncnc2c1ncn2C1OC(CO)C(O)C1O` (configuration not stated), the T/C under setting [20] was 104 % of control and the T/C under setting [21] is 116 % of control.
As to `CN=C(N)c1ccc(NC(=O)/C=C\c2ccc(C(=O)Nc3ccc(C(N)=NC)cc3)cc2)cc1`, the T/C reads like this: (dose: 1.88 mg/kg/injection, schedule: Q01DX Z (ip), vehicle: saline) 112 % of control; (dose: 3.75 mg/kg/injection, schedule: Q01DX Z (ip), vehicle: saline) 119 % of control; (dose: 7.5 mg/kg/injection, schedule: Q01DX Z (ip), vehicle: saline) 122 % of control; (dose: 60.0 mg/kg/injection, schedule: Q01DX Z (ip), vehicle: saline) 233 % of control; (dose: 120.0 mg/kg/injection, schedule: Q01DX Z (ip), vehicle: saline) 206 % of control; (dose: 480.0 mg/kg/injection, schedule: Q01DX Z (ip), vehicle: saline) 96 % of control.
For the compound `CN(C)c1ncnc2c1ncn2C1OC(CO)C(N(C)C)C1O` (configuration not stated), the T/C is, setting by setting: under setting [20], 103 % of control; under setting [21], 95 % of control.
Turning to `Oc1ccc(Nc2ncnc3cc(Cl)ccc23)cc1CN(c1ccccc1)c1ccccc1`, the T/C is, setting by setting: under setting [5], 102 % of control; under setting [9], 89 % of control.
Turning to `CCN(CC)C(N)=O`, the T/C was 92 % of control under setting [2]; 102 % of control under setting [5]; 118 % of control under setting [7]; 107 % of control under setting [9]; 101 % of control (dose: 400.0 mg/kg/injection, schedule: Q01DX009 (ip), vehicle: saline); 107 % of control under setting [12].
In the case of `CCOc1ccc(/C=N/NC(C)=O)cc1OC`, the T/C was 95 % of control under setting [16] and 101 % of control under setting [17].

For the origin of these results see PubChem BioAssay AID248 (DTP/NCI, 2004).
